Each structure is given as a SMILES string.

For test [1], the system named is Miapaca-2 cells. Briefly: Clonogenicity assay, Miapaca-2. The settings on record: 3 μM, 10 days, vs no treatment. It is filed as cell-based, human. As for the experimental part: (§1) Assays of cell proliferation and clonogenicity. Cells were seeded at 2000 cells/well in 96-well plates and treated at 37° C. for 72 h before MTS [3-(4,5-dimethylthiazol-2-yl)-5-(3-carboxymethoxyphenyl)-2-(4-sulfophenyl)-2H- tetrazolium] assay. The proportion of viable cells was normalized to that of untreated cells and expressed as mean±standard error of the mean (n=6). […] Cells were seeded at 1000 cells per 10-cm plate in growth medium overnight and treated at 37° C. for 10 days. At the end of this 10-day period, colonies were fixed with formalin and stained with crystal violet. Colonies with more than 20 cells were counted.

The test system of a further test is HPSCs. Briefly: Cell proliferation MTS assay, HPSCs. Format: cell-based. The settings on record: 72 h, read-out: IC50, HPSC proliferation. As for the experimental part: as §1
(In general: Formazan colour is commonly taken as a measure of viable cells.)

The next test deals with L3.6pl cells. Briefly: Cell proliferation MTS assay, L3.6pl. The settings on record: Homo sapiens, 72 h. It is filed as cell-based. As for the experimental part:
as §1

A further test concerns Panc-1 cells. The test is described as follows: Cell proliferation MTS assay, Panc-1. The settings on record: Homo sapiens, 72 h. It is filed as cell-based. As for the experimental part: as §1
In test [2] the test system is Miapaca-2 cells. Briefly: Cell proliferation MTS assay, Miapaca-2. It is filed as cell-based. The settings on record: Homo sapiens, MIA PaCa-2, 72 h. As for the experimental part:
as §1

The test system of test [3] is spontaneous PDAC of KPC-luc mice. Briefly: Survival study in KPC-luc mice. The settings on record: KPC-luc mice enrolled at 95 to 100 days of age; CTL 139 days. Format: in vivo. As for the experimental part:
FIG. 22: Antitumor efficacy of M-CPA/PTX in a transgenic mice model with spontaneous PDAC in the pancreas of KPC-Luc mice. Mice with positive bioluminescence signals were enrolled at 95 to 100 days of age. M-CPA/PTX was given at 5 mg/kg/drug per injection. The treatment schedule was: 3 intravenous injections per week for the first 2 weeks, followed by 2 intraperitoneal injections per week until death or 90 days from the initiation of treatment. Untreated mice were kept as control (CTL). Gemcitabine and abraxane were used as the standard therapies. Gemcitabine was intraperitoneally injected at 100 mg/kg every other day until death. Abraxane was given at 5 mg/kg/injection following the same schedule as M-CPA/PTX.
The genetically engineered mouse model of PDAC (the KPC-luc mouse model) was also used to test for the antitumor efficacy of drug-loaded micelles on tumors in a survival study. […] The mice were assigned into four different groups: (1) mice with untreated […] (control group), (2) mice intravenously injected gemcitabine at 100 mg/kg every other day until death, (3) mice given Abraxane at 5 mg/kg/injection, and (4) M-CPA/PTX given at 5 mg/kg/drug per injection. […]

As to `CC1=C2C[C@H]3[C@@H](CC=C4C[C@@H](O)CC[C@@]43C)[C@@H]2CC[C@]12O[C@@H]1C[C@H](C)CN[C@H]1[C@H]2C` [CPA, cyclopamine], the “reduction of the number of colonies” value in the test with Miapaca-2 cells [1] came out at 18.2±1.3%. For the same compound, the IC50 is 13.3 ± 1.2 µM in the test with HPSCs, 16 ± 1.5 µM with L3.6pl cells, ~163 µM in the test with Panc-1 cells and 10.2 ± 0.1 µM with Miapaca-2 cells [2].
Regarding `CC(=O)O[C@H]1C(=O)[C@@]2(C)[C@H]([C@H](OC(=O)c3ccccc3)[C@]3(O)C[C@H](OC(=O)[C@H](O)[C@@H](NC(=O)c4ccccc4)c4ccccc4)C(C)=C1C3(C)C)[C@]1(OC(C)=O)CO[C@@H]1C[C@@H]2O` [PTX, paclitaxel], the IC50 in the test on L3.6pl cells stood at 0.0014 ± 0.0001 µM; with Panc-1 cells, 0.0024 ± 0.0004 µM; in the test with Miapaca-2 cells [2] it was 0.0012 ± 0.0001 µM.
`Nc1ccn([C@@H]2O[C@H](CO)[C@@H](O)C2(F)F)c(=O)n1` [gemcitabine] yielded a median survival in test [3] of 167 days.

The values above are taken from US11026889B2, “Polymeric drug delivery systems for treatment of disease” (Board of Regents, The University of Texas System, priority 2015, dated 2021).
